Data from patent US11331369B2, “Endoparasitic depsipeptides” (Zoetis Services LLC, priority 2017, dated 2022).

The molecules below were run on microfilariae of Dirofilaria immitis (assay: Dirofilaria immitis, Microfilaria (DiMF) In vitro Assay). Conditions: 72 h, read-out: DiMF Minimum Effective Dose (MED), approximately 72 hours incubation, microfilariae assessed for survival or paralysis.
Assay type: cell-based
In the case of `CC(C)C[C@H]1C(=O)O[C@H](Cc2ccc(Cn3ccnc3I)cc2)C(=O)N(C)[C@@H](CC(C)C)C(=O)O[C@H](C)C(=O)N(C)[C@@H](CC(C)C)C(=O)O[C@H](Cc2ccc(Cn3ccnc3I)cc2)C(=O)N(C)[C@@H](CC(C)C)C(=O)O[C@H](C)C(=O)N1C` [Example 6-10, (3S,6R,9S,12R,15S,18R,21S,24R)-6,18-bis(4-((2-iodo-1H-imidazol-1-yl)methyl)benzyl)-3,9,15,21-tetraisobutyl-4,10,12,16,22,24-hexamethyl-1,7,13,19-tetraoxa-4,10,16,22-tetraazacyclotetracosan-2,5,8,11,14,17,20,23-octaone], the minimal effective concentration is reported as 0.01 to 0.1 µM.
`CC(C)C[C@H]1C(=O)O[C@H](Cc2ccc(Cn3ccnc3-c3ccccc3)cc2)C(=O)N(C)[C@@H](CC(C)C)C(=O)O[C@H](C)C(=O)N(C)[C@@H](CC(C)C)C(=O)O[C@H](Cc2ccc(Cn3ccnc3-c3ccccc3)cc2)C(=O)N(C)[C@@H](CC(C)C)C(=O)O[C@H](C)C(=O)N1C` [Example 6-11, (3S,6R,9S,12R,15S,18R,21S,24R)-3,9,15,21-tetraisobutyl-4,6,10,16,18,22-hexamethyl-12,24-bis(4-((2-phenyl-1H-imidazol-1-yl)methyl)benzyl)-1,7,13,19-tetraoxa-4,10,16,22-tetraazacyclotetracosan-2,5,8,11,14,17,20,23-octaone] was tested, and the minimal effective concentration was 0.01 to 0.1 µM.
With `Cc1cn(Cc2ccc(C[C@H]3OC(=O)[C@H](CC(C)C)N(C)C(=O)[C@@H](C)OC(=O)[C@H](CC(C)C)N(C)C(=O)[C@@H](Cc4ccc(Cn5cnc(C)c5)cc4)OC(=O)[C@H](CC(C)C)N(C)C(=O)[C@@H](C)OC(=O)[C@H](CC(C)C)N(C)C3=O)cc2)cn1` [Example 6-14, (3S,6R,9S,12R,15S,18R,21S,24R)-3,9,15,21-tetraisobutyl-4,6,10,16,18,22-hexamethyl-12,24-bis(4-((4-methyl-1H-imidazol-1-yl)methyl)benzyl)-1,7,13,19-tetraoxa-4,10,16,22-tetraazacyclotetracosan-2,5,8,11,14,17,20,23-octaone] the minimal effective concentration was 0.01 to 0.1 µM.
In the case of `CC(C)C[C@H]1C(=O)O[C@H](Cc2ccc(Cn3ccnc3CO)cc2)C(=O)N(C)[C@@H](CC(C)C)C(=O)O[C@H](C)C(=O)N(C)[C@@H](CC(C)C)C(=O)O[C@H](Cc2ccc(Cn3ccnc3CO)cc2)C(=O)N(C)[C@@H](CC(C)C)C(=O)O[C@H](C)C(=O)N1C` [Example 6-16, (3S,6R,9S,12R,15S,18R,21S,24R)-6,18-bis(4-((2-(hydroxymethyl)-1H-imidazol-1-yl)methyl)benzyl)-3,9,15,21-tetraisobutyl-4,10,12,16,22,24-hexamethyl-1,7,13,19-tetraoxa-4,10,16,22-tetraazacyclotetracosan-2,5,8,11,14,17,20,23-octaone], the minimal effective concentration is reported as 0.001 to 0.01 µM.
`CC(C)C[C@H]1C(=O)O[C@H](Cc2ccc(Cn3ccnc3-c3cncs3)cc2)C(=O)N(C)[C@@H](CC(C)C)C(=O)O[C@H](C)C(=O)N(C)[C@@H](CC(C)C)C(=O)O[C@H](Cc2ccc(Cn3ccnc3-c3cncs3)cc2)C(=O)N(C)[C@@H](CC(C)C)C(=O)O[C@H](C)C(=O)N1C` [Example 6-18, (3S,6R,9S,12R,15S,18R,21S,24R)-3,9,15,21-tetraisobutyl-4,6,10,16,18,22-hexamethyl-12,24-bis(4-((2-(thiazol-5-yl)-1H-imidazol-1-yl)methyl)benzyl)-1,7,13,19-tetraoxa-4,10,16,22-tetraazacyclotetracosan-2,5,8,11,14,17,20,23-octaone] was tested, and the minimal effective concentration was 0.01 to 0.1 µM.
`COCc1nccn1Cc1ccc(C[C@H]2OC(=O)[C@H](CC(C)C)N(C)C(=O)[C@@H](C)OC(=O)[C@H](CC(C)C)N(C)C(=O)[C@@H](Cc3ccc(Cn4ccnc4COC)cc3)OC(=O)[C@H](CC(C)C)N(C)C(=O)[C@@H](C)OC(=O)[C@H](CC(C)C)N(C)C2=O)cc1` [Example 6-19, (3S,6R,9S,12R,15S,18R,21S,24R)-3,9,15,21-tetraisobutyl-6,18-bis(4-((2-(methoxymethyl)-1H-imidazol-1-yl)methyl)benzyl)-4,10,12,16,22,24-hexamethyl-1,7,13,19-tetraoxa-4,10,16,22-tetraazacyclotetracosan-2,5,8,11,14,17,20,23-octaone] showed a minimal effective concentration of 0.001 to 0.01 µM.
`Cc1nccn1Cc1ccc(C[C@H]2OC(=O)[C@H](CC(C)C)N(C)C(=O)[C@@H](C)OC(=O)[C@H](CC(C)C)N(C)C(=O)[C@@H](Cc3cccc(Cn4ccnc4C)c3)OC(=O)[C@H](CC(C)C)N(C)C(=O)[C@@H](C)OC(=O)[C@H](CC(C)C)N(C)C2=O)cc1` [Example 7-1, (3S,6R,9S,12R,15S,18R,21S,24R)-3,9,15,21-tetraisobutyl-4,6,10,16,18,22-hexamethyl-12-[[3-[(2-methylimidazol-1-yl)methyl]phenyl]methyl]-24-[[4-[(2-methylimidazol-1-yl)methyl]phenyl]methyl]-1,7,13,19-tetraoxa-4,10,16,22-tetrazacyclotetracosane-2,5,8,11,14,17,20,23-octaone] showed a minimal effective concentration of 0.01 to 0.1 µM.
`CC(C)C[C@H]1C(=O)O[C@H](Cc2cccc(Cn3ccnc3)c2)C(=O)N(C)[C@@H](CC(C)C)C(=O)O[C@H](C)C(=O)N(C)[C@@H](CC(C)C)C(=O)O[C@H](Cc2ccc(Cn3ccnc3)cc2)C(=O)N(C)[C@@H](CC(C)C)C(=O)O[C@H](C)C(=O)N1C` [Example 7-2, (3S,6R,9S,12R,15S,18R,21S,24R)-6-(3-((1H-imidazol-1-yl)methyl)benzyl)-18-(4-((1H-imidazol-1-yl)methyl)benzyl)-3,9,15,21-tetraisobutyl-4,10,12,16,22,24-hexamethyl-1,7,13,19-tetraoxa-4,10,16,22-tetraazacyclotetracosan-2,5,8,11,14,17,20,23-octaone] was tested, and the minimal effective concentration was 0.01 to 0.1 µM.
`CCc1nccn1Cc1ccc(C[C@H]2OC(=O)[C@H](CC(C)C)N(C)C(=O)[C@@H](C)OC(=O)[C@H](CC(C)C)N(C)C(=O)[C@@H](Cc3cccc(Cn4ccnc4CC)c3)OC(=O)[C@H](CC(C)C)N(C)C(=O)[C@@H](C)OC(=O)[C@H](CC(C)C)N(C)C2=O)cc1` [Example 7-4, (3S,6R,9S,12R,15S,18R,21S,24R)-6-[[3-[(2-ethylimidazol-1-yl)methyl]phenyl]methyl]-18-[[4-[(2-ethylimidazol-1-yl)methyl]phenyl]methyl]-3,9,15,21-tetraisobutyl-4,10,12,16,22,24-hexamethyl-1,7,13,19-tetraoxa-4,10,16,22-tetrazacyclotetracosane-2,5,8,11,14,17,20,23-octaone] showed a minimal effective concentration of 0.01 to 0.1 µM.
Work on `CC(C)C[C@H]1C(=O)O[C@H](Cc2cccc(Cn3ccnc3C3CC3)c2)C(=O)N(C)[C@@H](CC(C)C)C(=O)O[C@H](C)C(=O)N(C)[C@@H](CC(C)C)C(=O)O[C@H](Cc2ccc(Cn3ccnc3C3CC3)cc2)C(=O)N(C)[C@@H](CC(C)C)C(=O)O[C@H](C)C(=O)N1C` [Example 7-7, (3S,6R,9S,12R,15S,18R,21S,24R)-6-[[3-[(2-cyclopropylimidazol-1-yl)methyl]phenyl]methyl]-18-[[4-[(2-cyclopropylimidazol-1-yl)methyl]phenyl]methyl]-3,9,15,21-tetraisobutyl-4,10,12,16,22,24-hexamethyl-1,7,13,19-tetraoxa-4,10,16,22-tetrazacyclotetracosane-2,5,8,11,14,17,20,23-octaone] yielded a minimal effective concentration of 0.01 to 0.1 µM.
`CC(C)C[C@H]1C(=O)O[C@H](Cc2cccc(Cn3ccnc3CO)c2)C(=O)N(C)[C@@H](CC(C)C)C(=O)O[C@H](C)C(=O)N(C)[C@@H](CC(C)C)C(=O)O[C@H](Cc2ccc(Cn3ccnc3CO)cc2)C(=O)N(C)[C@@H](CC(C)C)C(=O)O[C@H](C)C(=O)N1C` [Example 7-11, (3S,6R,9S,12R,15S,18R,21S,24R)-6-(3-((2-(hydroxymethyl)-1H-imidazol-1-yl)methyl)benzyl)-18-(4-((2-(hydroxymethyl)-1H-imidazol-1-yl)methyl)benzyl)-3,9,15,21-tetraisobutyl-4,10,12,16,22,24-hexamethyl-1,7,13,19-tetraoxa-4,10,16,22-tetraazacyclotetracosan-2,5,8,11,14,17,20,23-octaone] gave a minimal effective concentration of 0.01 to 0.1 µM.
`CC(C)C[C@H]1C(=O)O[C@H](Cc2ccc(Cn3ccnc3)cc2)C(=O)N(C)[C@@H](CC(C)C)C(=O)O[C@H](C)C(=O)N(C)[C@@H](CC(C)C)C(=O)O[C@H](Cc2ccccc2)C(=O)N(C)[C@@H](CC(C)C)C(=O)O[C@H](C)C(=O)N1C` [Example 8-2, (3S,6R,9S,12R,15S,18R,21S,24R)-6-benzyl-18-[[4-(imidazol-1-ylmethyl)phenyl]methyl]-3,9,15,21-tetraisobutyl-4,10,12,16,22,24-hexamethyl-1,7,13,19-tetraoxa-4,10,16,22-tetrazacyclotetracosane-2,5,8,11,14,17,20,23-octaone] gave a minimal effective concentration of 0.01 to 0.1 µM.
`Cc1cn(Cc2ccc(C[C@H]3OC(=O)[C@H](CC(C)C)N(C)C(=O)[C@@H](C)OC(=O)[C@H](CC(C)C)N(C)C(=O)[C@@H](Cc4ccccc4)OC(=O)[C@H](CC(C)C)N(C)C(=O)[C@@H](C)OC(=O)[C@H](CC(C)C)N(C)C3=O)cc2)c(C)n1` [Example 8-5, (3S,6R,9S,12R,15S,18R,21S,24R)-6-benzyl-18-(4-((2,4-dimethyl-1H-imidazol-1-yl)methyl)benzyl)-3,9,15,21-tetraisobutyl-4,10,12,16,22,24-hexamethyl-1,7,13,19-tetraoxa-4,10,16,22-tetraazacyclotetracosan-2,5,8,11,14,17,20,23-octaone] gave a minimal effective concentration of 0.01 to 0.1 µM.
For `CC(C)C[C@H]1C(=O)O[C@H](Cc2ccc(Cn3ccnc3I)cc2)C(=O)N(C)[C@@H](CC(C)C)C(=O)O[C@H](C)C(=O)N(C)[C@@H](CC(C)C)C(=O)O[C@H](Cc2ccccc2)C(=O)N(C)[C@@H](CC(C)C)C(=O)O[C@H](C)C(=O)N1C` [Example 8-10, (3S,6R,9S,12R,15S,18R,21S,24R)-6-benzyl-18-(4-((2-iodo-1H-imidazol-1-yl)methyl)benzyl)-3,9,15,21-tetraisobutyl-4,10,12,16,22,24-hexamethyl-1,7,13,19-tetraoxa-4,10,16,22-tetraazacyclotetracosan-2,5,8,11,14,17,20,23-octaone], the minimal effective concentration was 0.01 to 0.1 µM.
